From patent publication US9168247B2, “Beta carboline derivatives useful in the treatment of proliferative disorders” (FACULTES UNIVERSITAIRES NOTRE DAME DE LA PAIX, priority 2010, dated 2015)

Legend:
Format in all cases: cell-based, human
U373 cells = test: Cellular imaging (videomicroscopy) of cultured U373 cells: antiproliferative class and global growth ratio; design: key to Anti proliferative class / anti-proliferative class-GGR: class I: actually cytostatic for 3 days (<10% of cell death at the 3rd day); class II: cyctostatic but becomes cytotoxic with <10% cell death on the 2nd day, and >20% of cell death on the 3rd day; class III: cytostatic but rapidly becomes cytotoxic with <10% cell death on the 1st day, >20% of cell death on the 2nd day and >50% of cell death on the 3rd day; class IV: cytotoxic (>50% of cell death on the first day); conditions: for global growth ratio (GGR): GG treated cells/GG control cells, 72 h after drug addition, drug at its IC50 (MTT-test determined); for anti-proliferative class-GGR: Table 4; for Anti proliferative class: cellular imaging of cultured U373 cells over three consecutive days
Procedure, shortened: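 U373-MG glioma cells seeded at low density, exposed or not to compound […], filmed by videomicroscopy for 72 h, in quadruplicate. Cells counted on first (0 h) and last (72 h) images; GGR = final/initial count, reported as GGR treated/GGR control.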

T98G glioma cells = test: MTT test, overall cell growth, T98G; conditions: 72 hours of incubation
Procedure, shortened: (§1)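 Glioma (Hs683, T98G, U373) and oesophageal (OE21, OE33) lines seeded at 5,000–8,000 cells/well, treated 24 h later with compound at 1×10^−8 to 1×10^−4 M for 72 h at 37 °C, in sestuplicate.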

Hs683 glioma cells = test: MTT test, overall cell growth, Hs683
Procedure, shortened: as §1

[1] = tested on: OE21 oesophageal cancer cells; test: MTT test, overall cell growth, OE21
Procedure, shortened: as §1

[2] = Homo sapiens, Hs 683, 72 hours of incubation
[3] = Homo sapiens, OE21, 72 hours of incubation

SMILES: COCCOc1ccc2c(c1)[nH]c1c(C)nccc12 [JR220]
- global growth ratio (GGR) (U373 cells): 0.2
- anti-proliferative class-GGR (U373 cells): (I) (class I: actually cytostatic for 3 days (<10% of cell death at the 3rd day))
- Anti proliferative class (U373 cells): I (class I: actually cytostatic for 3 days (<10% of cell death at the 3rd day))
- IC50 (T98G glioma cells): 61 ± 7 µM
- IC50 (Hs683 glioma cells; 72 hours of incubation): 53 ± 6 µM
- IC50 ([1]; 72 hours of incubation): 53 ± 4 µM

SMILES: Cc1c2c(cc[n+]1Cc1ccccc1)c1ccc(OCc3ccccc3)cc1n2Cc1ccccc1.[Br-] [CV21/JR95, 1-methyl-2-benzyl-7-benzyloxy-9-benzyl-β-carbolin-2-ium bromide]
- global growth ratio (GGR) (U373 cells): 0.4
- anti-proliferative class-GGR (U373 cells): (I) (class I: actually cytostatic for 3 days (<10% of cell death at the 3rd day))
- Anti proliferative class (U373 cells): I (class I: actually cytostatic for 3 days (<10% of cell death at the 3rd day))
- IC50 (T98G glioma cells; Homo sapiens, T98G): 0.48 ± 0.02 µM
- IC50 (Hs683 glioma cells; [2]): 0.49 ± 0.05 µM
- IC50 [1, 3]: 1.3 ± 0.2 µM

SMILES: Cc1nccc2c1[nH]c1cc(OCc3cccnc3)ccc12 [JR212]
- global growth ratio (GGR) (U373 cells): 0.3
- anti-proliferative class-GGR (U373 cells): (I) (class I: actually cytostatic for 3 days (<10% of cell death at the 3rd day))
- Anti proliferative class (U373 cells): I (class I: actually cytostatic for 3 days (<10% of cell death at the 3rd day))
- IC50 (T98G glioma cells): 29 ± 2 µM
- IC50 (Hs683 glioma cells; 72 hours of incubation): 30 ± 3 µM
- IC50 ([1]; 72 hours of incubation): 28 ± 2 µM

SMILES: Cc1nccc2c3ccc(OCc4ccccc4)cc3n(Cc3ccccc3)c12 [CV9/JR84, 1-methyl-7-benzyloxy-9-benzyl-β-carboline]
- global growth ratio (GGR) (U373 cells): 0.3
- anti-proliferative class-GGR (U373 cells): (II)
- Anti proliferative class (U373 cells): II
- IC50 (T98G glioma cells; Homo sapiens, T98G): 36 ± 2 µM
- IC50 (Hs683 glioma cells; [2]): 33 ± 1 µM
- IC50 [1, 3]: 28 ± 3 µM
